Measurements: ChEMBL document CHEMBL1136603, “Synthesis and biological evaluation of novel indoloazepine derivatives as non-peptide vasopressin V2 receptor antagonists” (Bioorg Med Chem Lett, 2003)

How the values were obtained:
Vasopressin V2 receptor [1] = biological target: T1, Vasopressin V2 receptor (Homo sapiens, UniProt P30518); experiment: Compound was assessed for their ability to displace [3H]AVP from human V2 receptors transfected into HEK293 cells at 0.1 uM concentration; assay type: cell-based
T1 sequence (P30518 whole entry): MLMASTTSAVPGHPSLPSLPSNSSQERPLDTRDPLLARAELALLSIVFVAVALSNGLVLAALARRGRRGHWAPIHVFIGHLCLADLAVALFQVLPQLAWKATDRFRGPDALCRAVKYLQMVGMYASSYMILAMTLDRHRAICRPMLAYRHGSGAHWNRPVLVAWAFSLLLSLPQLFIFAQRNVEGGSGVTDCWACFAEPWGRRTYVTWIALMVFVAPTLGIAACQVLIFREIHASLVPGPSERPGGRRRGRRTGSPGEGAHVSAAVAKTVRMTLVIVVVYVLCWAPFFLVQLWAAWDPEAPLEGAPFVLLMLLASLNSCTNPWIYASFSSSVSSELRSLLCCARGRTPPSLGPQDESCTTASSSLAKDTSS

Vasopressin V2 receptor [2] = biological target: T1, Vasopressin V2 receptor; experiment: Displacement of [3H]AVP from human V2 receptors expressed in HEK293 cells; assay type: cell-based
Vasopressin V2 receptor [3] = biological target: T1, Vasopressin V2 receptor; experiment: Inhibitory activity of the human V2 receptor was assessed by the accumulation of cAMP in transfected HEK293 cells.; assay type: functional, cell-based
Vasopressin V1a receptor = Vasopressin V1a receptor (Homo sapiens, UniProt P37288); experiment: Binding affinity towards VIa receptor
Chain of Vasopressin V1a receptor (P37288 whole entry): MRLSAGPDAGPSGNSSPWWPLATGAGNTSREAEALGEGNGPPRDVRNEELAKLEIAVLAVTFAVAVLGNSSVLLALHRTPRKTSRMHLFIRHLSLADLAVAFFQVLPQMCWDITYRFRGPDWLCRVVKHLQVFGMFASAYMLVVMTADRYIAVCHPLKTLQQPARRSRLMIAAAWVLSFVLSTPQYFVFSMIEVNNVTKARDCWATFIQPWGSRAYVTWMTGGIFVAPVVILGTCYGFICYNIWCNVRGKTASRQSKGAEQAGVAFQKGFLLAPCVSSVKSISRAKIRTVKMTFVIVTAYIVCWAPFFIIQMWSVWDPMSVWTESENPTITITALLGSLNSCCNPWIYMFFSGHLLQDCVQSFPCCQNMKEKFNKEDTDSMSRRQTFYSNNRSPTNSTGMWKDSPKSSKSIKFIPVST

Vasopressin V2 receptor [4] = biological target: Vasopressin V2 receptor (Rattus norvegicus, UniProt Q00788); experiment: Binding affinity towards V2 receptor
Chain of Vasopressin V2 receptor (Rattus norvegicus, UniProt Q00788) (Q00788 whole entry): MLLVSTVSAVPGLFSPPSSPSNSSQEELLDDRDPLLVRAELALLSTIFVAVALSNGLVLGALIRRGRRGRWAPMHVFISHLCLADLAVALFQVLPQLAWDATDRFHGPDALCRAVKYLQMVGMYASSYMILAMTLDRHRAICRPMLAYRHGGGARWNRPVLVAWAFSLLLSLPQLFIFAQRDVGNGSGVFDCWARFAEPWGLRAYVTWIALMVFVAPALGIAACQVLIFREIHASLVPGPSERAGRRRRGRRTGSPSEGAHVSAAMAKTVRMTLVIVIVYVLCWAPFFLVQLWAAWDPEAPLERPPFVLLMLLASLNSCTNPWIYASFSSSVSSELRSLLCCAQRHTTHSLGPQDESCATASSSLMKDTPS

| SMILES | IC50 (Vasopressin V2 receptor [2]) [nM] | other results |
| --- | --- | --- |
| Cc1ccccc1C(=O)Nc1ccc(C(=O)N2CCCc3c[nH]c4cccc2c34)cc1 |  | inhibition (Vasopressin V2 receptor [1]): < 30% |
| Cc1ccc(F)cc1C(=O)Nc1ccc(C(=O)N2CCCc3c[nH]c4cccc2c34)cc1 | 190 |  |
| O=C(Nc1ccc(C(=O)N2CCCc3c(Cl)[nH]c4cccc2c34)cc1)c1ccccc1-c1ccccc1 | 44 |  |
| O=C(Nc1ccc(C(=O)N2CCCc3c(S(=O)(=O)O)[nH]c4cccc2c34)cc1)c1ccccc1-c1ccccc1 | 13 |  |
| CCCn1cc2c3c(cccc31)N(C(=O)c1ccc(NC(=O)c3ccccc3-c3ccc(C)cc3)cc1)CCC2 |  | inhibition (Vasopressin V2 receptor [1]): < 30% |
| CC(=O)n1cc2c3c(cccc31)N(C(=O)c1ccc(NC(=O)c3ccccc3-c3ccc(C)cc3)cc1)CCC2 | 170 |  |
| Cc1ccc(-c2ccccc2C(=O)Nc2ccc(C(=O)N3CCCc4cn(Cc5ccccc5)c5cccc3c45)cc2)cc1 |  | inhibition (Vasopressin V2 receptor [1]): < 30% |
| O=C(Nc1ccc(C(=O)N2CCCc3c(S(=O)(=O)O)[nH]c4cccc2c34)cc1Cl)c1ccccc1-c1ccccc1 | 12 |  |
| Cc1c(F)cccc1C(=O)Nc1ccc(C(=O)N2CCCc3c[nH]c4cccc2c34)cc1 | 180 |  |
| O=C(Nc1ccc(C(=O)N2CCCC3C(=O)Nc4cccc2c43)cc1)c1ccccc1-c1ccccc1 (configuration not stated) | 8 |  |
| O=C(Nc1ccc(C(=O)N2CCCc3c[nH]c4cccc2c34)cc1)c1ccccc1-c1ccccc1 | 20 | IC50 (Vasopressin V2 receptor [3]): 70 nM; IC50 (Vasopressin V1a receptor): 3100 nM; IC50 (Vasopressin V2 receptor [4]): 1 nM |
| Cc1ccc(-c2ccccc2C(=O)Nc2ccc(C(=O)N3CCCc4cn(C)c5cccc3c45)cc2)cc1 | 210 |  |
| Cc1ccc(F)cc1C(=O)Nc1ccc(C(=O)N2Cc3cccn3Cc3ccccc32)c(Cl)c1 [LIXIVAPTAN] |  | IC50 (Vasopressin V2 receptor [3]): 91 nM |
| Cc1ccc(-c2ccccc2C(=O)Nc2ccc(C(=O)N3CCCc4c[nH]c5cccc3c45)cc2)cc1 | 11 | IC50 (Vasopressin V2 receptor [3]): 70 nM |
| O=C(Nc1ccc(C(=O)N2CCCc3c[nH]c4cccc2c34)c(Cl)c1)c1ccccc1-c1ccccc1 | 50 | IC50 (Vasopressin V2 receptor [3]): 330 nM |
| O=C(Nc1ccc(C(=O)N2CCCc3c[nH]c4cccc2c34)cc1Cl)c1ccccc1-c1ccccc1 | 15 |  |
| CCOC(=O)Cn1cc2c3c(cccc31)N(C(=O)c1ccc(NC(=O)c3ccccc3-c3ccc(C)cc3)cc1)CCC2 | 550 |  |
